Measurements taken from ChEMBL document CHEMBL3621190, “Fused Morphlinopyrimidines and Methods of Use Thereof” (ACS Med Chem Lett, 2015).

Molecular target: Gamma-secretase
Experiment: Inhibition of gamma-secretase in human H4 cells expressing human wild type […] cDNA assessed as reduction in amyloid beta peptides incubated for 16 to 18 hrs by ELISA method
Format: cell-based

SMILES	IC50 [nM]
Cc1ccccc1N1CCOc2cnc(NC3CCN(c4ccnc(Cl)c4)CC3)nc21	90
COc1cc(N2CCC(Nc3ncc4c(n3)N(c3ccccc3)CCO4)CC2)ccn1	25.2
Clc1cc(N2CCC(Nc3ncc4c(n3)N(c3ccccc3)CCO4)CC2)ccn1	54.3
COc1cc(N2CCC(Nc3ncc4c(n3)N(c3cc(F)c(F)c(F)c3)CCO4)CC2)ccn1	56
COc1cc(N2CCC(Nc3ncc4c(n3)N(c3ccc(Cl)cc3)CCO4)CC2)ccn1	25.4

The next lines start with the values.

IC50 [nM]	SMILES
25.6	COc1cc(N2CCC(Nc3ncc4c(n3)N(c3cc(F)cc(F)c3)CCO4)CC2)ccn1
58.5	COc1cc(N2CCC(Nc3ncc4c(n3)N(c3ccccc3C)CCO4)CC2)ccn1
54.8	COc1cc(N2CCC(Nc3ncc4c(n3)N(c3ccccc3Cl)CCO4)CC2)ccn1
20.8	COc1cc(N2CCC(Nc3ncc4c(n3)N(c3ccccc3OC(F)(F)F)CCO4)CC2)ccn1
72.4	COc1cc(N2CCC(Nc3ncc4c(n3)N(c3ccc(F)cc3F)CCO4)CC2)ccn1
11.9	COc1cc(N2CCC(Nc3ncc4c(n3)N(c3ccc(F)cc3C(F)(F)F)CCO4)CC2)ccn1
30.5	COc1cc(N2CCC(Nc3ncc4c(n3)N(c3ccc(F)cc3)CCO4)CC2)ccn1
